In patent US8748109B2, “Method for the detection of organ or tissue injury” (priority 2009, dated 2014):
Residues, ends and D or L forms follow the SMILES beside them. *: point of attachment. Cbz = O=C(OCc1ccccc1)*; CH2F = FC*

Assays:
HMGB-1 = system: HMGB-1
Text: (A) Schematic overview of the location of cysteine 106 within the cytokine domain of murine HMGB-1 which is characterized by MS/MS. […] MS/MS and western figures are representative of 6 mice per group.

[1] = system: Total hepatic glutathione (GSH+GSSG); assay: Determination of hepatic glutathione levels; format: in vivo, mouse; set-up: key to GSH depletion: (+) indicates significant; (−) non-significant hepatic GSH depletion compared to control animals; details: for GSH depletion: hepatic, APAP 530 mg/kg i.p., CD-1 mice
Experimental: Total hepatic glutathione (GSH+GSSG) levels were determined as described previously (29).

DNA laddering = assay: Hepatic DNA laddering (agarose gel); format: in vivo, mouse; set-up: key: (+) indicates positive detection of DNA laddering or processing of caspase-3 by western blot (WB)
Experimental: (§1) Caspase-3 western blotting was carried out as described previously (30) on mouse liver cytosol fractions prepared from snap frozen livers. DNA was isolated from snap frozen livers using the Sigma-Aldrich GeneElute kit according to the manufacturer's instructions. DNA laddering was visualised through ethidium bromide staining following separation on a 1% agarose gel. […] The number of cleaved caspase-3 positive cells (cytoplasmic staining) was evaluated semi-quantitatively (− no positive cells; + scattered positive cells; ++ moderate number of positive cells, +++ numerous positive cells).

HMGB1 [2] = assay: Total serum HMGB1 by ELISA; format: in vivo, mouse; details: for Serum Biomarker elevation Total HMGB1: APAP 530 mg/kg i.p., CD-1 mice
caspase-3 = assay: Caspase-3 western blotting of liver cytosol; format: in vivo, mouse; set-up: key to Caspase 3 processing (WB): (+) indicates positive detection of DNA laddering or processing of caspase-3 by western blot (WB); details: for Caspase 3 processing (WB): hepatic, APAP 530 mg/kg i.p., CD-1 mice
Experimental: as §1

HMGB1 [3] = assay: Serum hypo- and hyper-acetylated HMGB1 by LC-MS/MS (relative values); format: in vivo, mouse; details: APAP 530 mg/kg, mice, post dose, 0-24 hr time course
Experimental: Overnight immunoprecipitations (IP) of serum K18 and HMGB1 (5 μg antibody and protein G separation) were subjected to SDS-PAGE. Protein bands were excised from Coomassie Blue-stained gels, destained by incubation with 50% acetonitrile/50 mM ammonium bicarbonate followed by vacuum drying. Gel pieces were rehydrated in 50 mM ammonium bicarbonate containing 40 ng/μL modified trypsin (K18) or GluC (HMGB1) and incubated for 16 hr at 37° C. Peptides were extracted by incubation with 2 changes of 60% acetonitrile/1% trifluoroacetic acid and the resulting supernatants were again dried. Extracts were desalted using C18 ZipTips according to the manufacturer's instructions and reconstituted in 5% acetonitrile/0.1% trifluoroacetic acid. For LC-MS/MS analysis, samples were delivered into a QSTAR Pulsar i hybrid mass spectrometer (Applied Biosystems) by automated in-line liquid chromatography (integrated LC-Packings System, 5 mm C18 nano-precolumn and 75 μm×15 cm C18 PepMap column (Dionex, Calif., USA) via a nano-electrospray source head and 10 μm inner diameter PicoTip (New Objective, USA). A gradient from 5% acetonitrile/0.05% trifluoroacetic acid (v/v) to 48% acetonitrile/0.05% trifluoroacetic acid (v/v) in 60 min was applied at a flow rate of […], MS and MS/MS spectra were acquired automatically in positive ion mode using information-dependent acquisition (Analyst, Applied Biosystems). Database searching was performed using Protein Pilot 2 (Applied Biosystems) with the latest version of the SwissProt database, with the confidence level set at 80%, and with biological modifications allowed. Quantification of murine serum full length K18 and caspase dependent K18 fragments was accomplished through construction of standard curves generated with synthetic peptide standards spiked into and could be recovered from control serum and compared to immunoassay (17). The full length K18 standard ([…]) was designed to span the caspase 3, 7, 9 cleavage site, whereas the abbreviated peptide ([…]) is only derived from K18 fragments with the caspase cleavage site cut (limit of detection; 300 fmol/ml. coefficient of variation; <10%). HMGB1 and its hyper-acetylated derivative were quantified by spectral counting of the peptide peak, since no synthetic standards were available, and are consequently presented only as relative values and compared to total levels determined by ELISA according to the manufacturer's instructions (limit of detection; 0.1 ng/ml. coefficient of variation; <10%).

ALT = assay: Serum alanine transaminase (ALT) activity; format: in vivo, mouse; details: for Serum Biomarker elevation ALT activity: APAP 530 mg/kg i.p., CD-1 mice
apoptotic markers = assay: Effect of Z-VAD.fmk on APAP-induced apoptotic markers (DNA laddering, pro-caspase 3 processing, serum caspase cleaved K18); format: in vivo, mouse; details: Z-VAD.fmk 10 mg/kg i.v. 15 min pre-APAP (530 mg/kg; 5 hr), compared with APAP alone
Experimental: as §1
Overnight immunoprecipitations (IP) of serum K18 and HMGB1 (5 μg antibody and protein G separation) were subjected to SDS-PAGE. […] Quantification of murine serum full length K18 and caspase dependent K18 fragments was accomplished through construction of standard curves generated with synthetic peptide standards spiked into and could be recovered from control serum and compared to immunoassay (17). […] HMGB1 and its hyper-acetylated derivative were quantified by spectral counting of the peptide peak, since no synthetic standards were available, and are consequently presented only as relative values and compared to total levels determined by ELISA according to the manufacturer's instructions (limit of detection; 0.1 ng/ml. coefficient of variation; <10%).

male CD-1 mice = assay: Histological assessment of hepatotoxicity (H&E liver sections, hepatocyte loss score); details: APAP co-dosed with Z-VAD.fmk, 5 hr
[4] = APAP 530 mg/kg, mice, 10 hr post treatment
[5] = APAP 530 mg/kg, mice, 3-24 hr time course

CC(=O)Nc1ccc(O)cc1 [APAP, Acetaminophen]
serum molecular form of HMGB-1 present (HMGB-1; fasted mice dosed with APAP (530 mg/kg; 5 h)): the only serum molecular form of HMGB-1 present was the reduced form
predominant form of HMGB-1 in sera (HMGB-1; fed mice dosed with APAP (530 mg/kg; 5 h)): oxidized, immune-tolerant form
toxicity (HMGB-1; mouse, in vivo): displaying toxicity
GSH depletion ([1]; 3 hr): +
GSH depletion ([1]; 5 hr): +
GSH depletion ([1]; 10 hr): −
GSH depletion ([1]; 15 hr): −
GSH depletion ([1]; 20 hr): −
GSH depletion ([1]; 24 hr): −
DNA laddering (DNA laddering; [4]): no evidence
DNA laddering (DNA laddering; hepatic, APAP 530 mg/kg i.p., CD-1 mice, 3 hr): +
DNA laddering (DNA laddering; hepatic, APAP 530 mg/kg i.p., CD-1 mice, 5 hr): +
Serum Biomarker elevation Total HMGB1 (HMGB1 [2]; 3 hr): +
Serum Biomarker elevation Total HMGB1 (HMGB1 [2]; 5 hr): +
Serum Biomarker elevation Total HMGB1 (HMGB1 [2]; 10 hr): +
Serum Biomarker elevation Total HMGB1 (HMGB1 [2]; 15 hr): +
Serum Biomarker elevation Total HMGB1 (HMGB1 [2]; 20 hr): −
Serum Biomarker elevation Total HMGB1 (HMGB1 [2]; 24 hr): −
last time point with serum HMGB1 elevation (HMGB1 [2]; [5]): ≤ 15 h
caspase 3 processing (caspase-3; [4]): no evidence
Caspase 3 processing (WB) (caspase-3; 3 hr): +
Caspase 3 processing (WB) (caspase-3; 5 hr): +
Caspase 3 processing (WB) (caspase-3; 10 hr): +
time of first significant elevation of necrosis-associated (hypo-acetylated) serum HMGB1 (HMGB1 [3]): 3 h
time of first significant increase of immune cell derived (hyper-acetylated) serum HMGB1 (HMGB1 [3]): 5 h
time of peak of immune cell derived (hyper-acetylated) serum HMGB1 (HMGB1 [3]): 15 h
time of return to control levels of immune cell derived (hyper-acetylated) serum HMGB1 (HMGB1 [3]): ≤ 24 h
Serum Biomarker elevation ALT activity (ALT; 3 hr): +
Serum Biomarker elevation ALT activity (ALT; 5 hr): +
Serum Biomarker elevation ALT activity (ALT; 10 hr): +
Serum Biomarker elevation ALT activity (ALT; 15 hr): +
Serum Biomarker elevation ALT activity (ALT; 20 hr): +
Serum Biomarker elevation ALT activity (ALT; 24 hr): +
increased serum ALT activity, time course (ALT; [5]): observed over the entire time course

COC(=O)C[C@H](NC(=O)[C@H](C)NC(=O)[C@@H](NC(=O)OCc1ccccc1)C(C)C)C(=O)CF [Z-VAD.fmk] (Cbz-Val-Ala-Asp(OMe)-CH2F)
molecular form of HMGB1 detected (HMGB-1; Z-VAD.fmk in APAP-treated, fed mice): only the reduced molecular form
effect on APAP-mediated GSH depletion ([1]; Z-VAD.fmk pre-treatment, APAP 530 mg/kg, 5 hr): no effect
detection of apoptotic markers in APAP dosed mice (apoptotic markers): completely inhibited
apoptotic hepatocyte death by histology and immunohistology for cleaved caspase-3 (male CD-1 mice): no evidence
Histological scoring of centrilobular hepatocyte loss (male CD-1 mice; score 0-5, higher than APAP alone (p<0.05)): 2-3
serum ALT level compared with APAP alone (ALT; Z-VAD.fmk and APAP (530 mg/kg; 5 hr)): increased
